In patent US6677316B2, “Adenosine derivatives and methods of administration” (SmithKline Beecham Corporation, priority 1998, dated 2004):

Legend:
[1] = biological target: T1, human adenosine A1 receptor (Homo sapiens, UniProt P30542); assay: Reporter gene assay (CRE/SPAP) in CHO cells, agonist potency relative to NECA, adenosine A1 receptor; format: cell-based; set-up: key: equipotent concentration ratio, NECA = 1; conditions: ECR = equipotent concentration ratio relative to NECA = 1, inhibition of forskolin-stimulated SPAP production
T1 construct: expressed in transfected cells; host or cells: Chinese hamster ovary (CHO) cells with CRE/SPAP/HYG reporter elements
T1 sequence (P30542 1-326): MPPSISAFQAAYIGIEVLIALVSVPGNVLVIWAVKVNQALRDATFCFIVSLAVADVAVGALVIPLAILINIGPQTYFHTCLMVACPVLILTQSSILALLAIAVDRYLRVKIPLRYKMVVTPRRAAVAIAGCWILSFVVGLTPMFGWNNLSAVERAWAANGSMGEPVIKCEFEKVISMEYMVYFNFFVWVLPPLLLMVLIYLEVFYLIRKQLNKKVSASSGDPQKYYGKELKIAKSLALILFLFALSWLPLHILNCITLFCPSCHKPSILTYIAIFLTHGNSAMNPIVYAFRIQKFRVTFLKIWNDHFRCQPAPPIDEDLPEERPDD
Description: (§1) Reporter Gene Experiments
(§2) Agonist activity was measured in Chinese hamster ovary (CHO) cells containing the CRE/SPAP/HYG (CRE=cyclic AMP response element; HYG=hygromycin resistance; SPAP=secreted placental alkaline phosphatase) reporter gene elements, which upon stimulation of cAMP levels produced SPAP. A cell line was used, which was stably transfected with either the human adenosine A1 receptor or the human adenosine A3 receptor in addition to the above elements. Cells were plated out in 96-well plates in culture medium and incubated at 37° C. for 1 hour. For measurement of potency, agonists were added to the appropriate wells at a concentration range of approximately 10^−10- 10^−5M. 15Min later, cAMP levels were stimulated by addition of a maximal concentration of forskolin. All cells were then incubated for a further 5 hours at 37° C., and cooled to room temperature, after which a substrate for the phosphatase (para-nitrophenol phosphate, pNPP), which is converted by SPAP to a coloured reagent) was then added and the 96-well -plates were read in a plate reader. From these readings, the concentration-dependence of the inhibition by the agonist for forskolin-stimulated SPAP production can be calculated. One of the agonists tested on each 96-well plate was the standard non-selective agonist, N-ethylcarboxamidoadenosine (NECA), and the potency of all test agonists is expressed relative to that of the NECA standard.
(§3) (ECR=equipotent concentration ratio relative to NECA=1)

[2] = biological target: T2, human adenosine A3 receptor (Homo sapiens, UniProt P0DMS8); assay: Reporter gene assay (CRE/SPAP) in CHO cells, agonist potency relative to NECA, adenosine A3 receptor; format: cell-based; set-up: key: equipotent concentration ratio, NECA = 1; conditions: ECR = equipotent concentration ratio relative to NECA = 1, inhibition of forskolin-stimulated SPAP production
T2 construct: expressed in transfected cells; host or cells: Chinese hamster ovary (CHO) cells with CRE/SPAP/HYG reporter elements
T2 sequence (P0DMS8 1-318): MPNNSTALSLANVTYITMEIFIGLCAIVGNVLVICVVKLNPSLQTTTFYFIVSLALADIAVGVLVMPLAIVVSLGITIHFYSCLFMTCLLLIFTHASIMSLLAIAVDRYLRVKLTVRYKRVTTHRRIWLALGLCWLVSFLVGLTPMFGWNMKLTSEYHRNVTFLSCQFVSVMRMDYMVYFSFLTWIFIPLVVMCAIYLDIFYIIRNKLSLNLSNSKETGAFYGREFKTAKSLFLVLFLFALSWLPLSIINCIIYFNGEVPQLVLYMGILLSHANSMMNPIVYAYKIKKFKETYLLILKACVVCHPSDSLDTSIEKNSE
Description: as §1, §2, §3

Compound	Adenosine A1 receptor ECR* [1]	Adenosine A3 receptor ECR* [2]
CC(C)(C)c1noc([C@H]2O[C@@H](n3cnc4c(NCC5CC5)ncnc43)[C@H](O)[C@@H]2O)n1 [Example 44, (2S,3S,4 R,5R)-2-[3-(tert-butyl)-1,2,4-oxadiazol-5-yl]-5-{6-[(cyclopropylmethyl)amino]-9H-purin-9-yl}tetrahydrofuran-3,4-diol]	7.68	165.54
CC(C)CNc1ncnc2c1ncn2[C@@H]1O[C@H](c2nc(C(C)(C)C)no2)[C@@H](O)[C@H]1O [Example 45, (2S,3S,4R,5R)-2-[3-(tert-butyl)-1,2,4-oxadiazol-5-yl]-5-[6-(isobutylamino)-9H-purin-9-yl]tetrahydrofuran-3,4-diol]	7.36	165.54
CC(C)c1noc([C@H]2O[C@@H](n3cnc4c(NC5CC5)ncnc43)[C@H](O)[C@@H]2O)n1 [Example 51, (2R,3R,4S,5S)-2-[6-(cyclopropylamino)-9H-purin-9-yl]-5-(3-isopropyl-1,2,4-oxadiazol-5-yl)tetrahydrofuran-3,4-diol]	7.56	587.75
CNS(=O)(=O)CCNc1ncnc2c1ncn2[C@@H]1O[C@H](c2nc(C(C)C)no2)[C@@H](O)[C@H]1O [Example 54, 2-({9-[(2R,3R,4S,5S)-3,4-dihydroxy-5-(3-isopropyl-1,2,4-oxadiazol-5-yl)tetrahydrofuran-2-yl]-9H-purin-6-yl}amino)-N-methylethanesulfonamide]	20.78	715.31
CC(C)c1noc([C@H]2O[C@@H](n3cnc4c(Nc5ccc(F)c(F)c5)ncnc43)[C@H](O)[C@@H]2O)n1 [Example 56, (2R,3R,4S,5S)-2-[6-(3,4-difluoroanilino)-9H-purin-9-yl]-5-(3-isopropyl-1,2,4-oxadiazol-5-yl)tetrahydrofuran-3,4-diol]	15.96	717.99
O[C@@H]1[C@H](O)[C@@H](c2nc(C3CC3)no2)O[C@H]1n1cnc2c(Nc3ccc(Cl)cc3F)ncnc21 [Example 62, (2R,3R,4S,5S)-2-[6-(4-chloro-2-fluoroanilino)-9H-purin-9-yl]-5-(3-cyclopropyl-1,2,4-oxadiazol-5-yl)tetrahydrofuran-3,4-diol]	29.47	327
CC(C)(C)c1nnc([C@H]2O[C@@H](n3cnc4c(Nc5ccc(Cl)cc5F)ncnc43)[C@H](O)[C@@H]2O)[nH]1 [Example 67, (2R,3S,4 R,5 R)-2-[5-(tert-butyl)-4H-1,2,4-triazol-3-yl]-5-[6-(4-chloro-2-fluoroanilino)-9H-purin-9-yl]tetrahydrofuran-3,4-diol]	9.8	827.66
CC(C)c1nnc([C@H]2O[C@@H](n3cnc4c(Nc5ccc(F)cc5Cl)ncnc43)[C@H](O)[C@@H]2O)[nH]1 [Example 68, (2R,3R,4S,5R)-2-[6-(2-chloro-4-fluoroanilino)-9H-purin-9-yl]-5-(5-isopropyl-4H-1,2,4-triazol-3-yl)tetrahydrofuran-3,4-diol]	4.09	417.37
O[C@@H]1[C@H](O)[C@@H](c2nnc(C3CC3)o2)O[C@H]1n1cnc2c(NC3CCOCC3)ncnc21 [Example 108, (2S,3S,4R,5R)-2-(5-cyclopropyl-1,3,4-oxadiazol-2-yl)-5-[6-(tetrahydro-2H-pyran-4-ylamino)-9H-purin-9-yl]tetrahydrofuran-3,4-diol]	1.52	254
CC(C)(C)c1nnc([C@H]2O[C@@H](n3cnc4c(Nc5ccc(F)cc5Cl)ncnc43)[C@H](O)[C@@H]2O)o1 [Example 116, (2S,3S,4R,5R)-2-[5-(tert-butyl)-1,3,4-oxadiazol-2-yl]-5-[6-(2-chloro-4-fluoroanilino)-9H-purin-9-yl]tetrahydrofuran-3,4-diol]	27.26	955
CC(C)(C)c1cc([C@H]2O[C@@H](n3cnc4c(NC5CCS(=O)(=O)CC5)ncnc43)[C@H](O)[C@@H]2O)on1 [Example 119, (2S,3S,4 R,5R)-2-[3-(tert-butyl)isoxazol-5-yl]-5-{6-[(1,1-dioxidotetrahydro-2H-thiopyran-4-yl)amino]-9H-purin-9-yl}tetrahydrofuran-3,4-diol]	2.83	154
CCC(CC)Nc1nc(Cl)nc2c1ncn2[C@@H]1O[C@H](c2nc(C3CC3)no2)[C@@H](O)[C@H]1O.O=CO.O=CO [Example 133, (2R,3R,4S,5S)-2-{2-chloro-6-[(1-ethylpropyl)amino]-9H-purin-9-yl}-5-(3-cyclopropyl-1,2,4-oxadiazol-5-yl)tetrahydrofuran-3,4-diol formate (1:2)]	25.47	466.92

The remaining lines, values ahead:

Adenosine A1 receptor ECR* [1]	Adenosine A3 receptor ECR* [2]	Compound
4.19	325.44	CCNS(=O)(=O)CCNc1ncnc2c1ncn2[C@@H]1O[C@H](c2nnc(C(C)(C)C)o2)[C@@H](O)[C@H]1O [Example 123, 2-[(9-{(2R,3 R,4S,5S)-5-[5-(tert-butyl)-1,3,4-oxadiazol-2-yl]-3,4-dihydroxytetrahydrofuran-2-yl}-9H-purin-6-yl)amino]-N-ethylethanesulfonamide]
0.21	21.62	CNS(=O)(=O)CCNc1ncnc2c1ncn2[C@@H]1O[C@H](c2ncc(C)o2)[C@@H](O)[C@H]1O [Example 127, 2-({9-[(2R,3R,4S,5S)-3,4-dihydroxy-5-(5-methyl-1,3-oxazol-2-yl)tetrahydrofuran-2-yl]-9H-purin-6-yl}amino)-N-methylethanesulfonamide]
15.5	>199	COCc1noc([C@H]2O[C@@H](n3cnc4c(NC5CCCC5)ncnc43)[C@H](O)[C@@H]2O)n1 [Example 129, (2R,3R,4S,5S)-2-[6-(cyclopentylamino)-9H-purin-9-yl]-5-[3-(methoxymethyl)-1,2,4-oxadiazol-5-yl]tetrahydrofuran-3,4-diol]
0.15	199.01	CCc1nnc([C@H]2O[C@@H](n3cnc4c(NC(C)C)ncnc43)[C@H](O)[C@@H]2O)o1 [Example 131, (2S,3S,4R,5R)-2-(5-ethyl-1,3,4-oxadiazol-2-yl)-5-[6-(isopropylamino)-9H-purin-9-yl]tetrahydrofuran-3,4-diol]
0.53	>22.4	Cc1nnc([C@H]2O[C@@H](n3cnc4c(N[C@H]5CCC[C@@H]5O)ncnc43)[C@H](O)[C@@H]2O)o1 [Example 132, (2R,3R,4S,5S)-2-(6-{[(1 S,2S)-2-hydroxycyclopentyl]amino}-9H-purin-9-yl)-5-(5-methyl-1,3,4-oxadiazol-2-yl)tetrahydrofuran-3,4-diol]
10.64	228	CC(C)(C)c1nnc([C@H]2O[C@@H](n3cnc4c(NC5CCOCC5)ncnc43)[C@H](O)[C@@H]2O)[nH]1 [Example 139, (2R,3S,4R,5R)-2-[5-(tert-butyl)-4H-1,2,4-triazol-3-yl]-5-[6-(tetrahydro-2H-pyran-4-ylamino)-9H-purin-9-yl]tetrahydrofuran-3,4-diol]
12.08	228	CC(C)c1nnc([C@H]2O[C@@H](n3cnc4c(NC5CCOCC5)ncnc43)[C@H](O)[C@@H]2O)[nH]1 [Example 141, (2R,3S,4R,5R)-2-(5-isopropyl-4H-1,2,4-triazol-3-yl)-5-[6-(tetrahydro-2H-pyran-4-ylamino)-9H-purin-9-yl]tetrahydrofuran-3,4-diol]
19.6	>74.1	Cc1cnc([C@H]2O[C@@H](n3cnc4c(Nc5ccc(F)cc5Cl)nc(Cl)nc43)[C@H](O)[C@@H]2O)o1 [Example 143, (2R,3R,4S,5S)-2-[2-chloro-6-(2-chloro-4-fluoroanilino)-9H-purin-9-yl]-5-(5-methyl-1,3-oxazol-2-yl)tetrahydrofuran-3,4-diol]
